The target in assay [1] is T1, WDR5 (Homo sapiens, UniProt P61964).
T1 construct: hexahistidine-SUMO (N, cleaved yes); made in house; host or cells: E. coli BL21-CodonPlus-RIL
Kind of assay: SPR binding of compounds to captured biotinylated WDR5, 1:1 steady-state affinity fit. The following applies: for Kd: SPR; for LE (ligand efficiency): from SPR KD. How it is done:
SPR assay of small molecule binding used minimally biotinylated WDR5^23–334 protein captured on streptavidin-coated SPR chips. WDR5 (1 eq.) was mixed with freshly water-dissolved EZ-link Sulfo-NHS-LC-LC-biotin (0.8 eq., Thermofisher Scientific). The reaction mixture was incubated on ice for 2 h; unreacted biotin reagent was then removed from the mixture using size-exclusion chromatography on a Superdex 75 (10/300) column equilibrated in storage buffer (10 mM HEPES, 150 mM NaCl, 5 mM DTT).
(§1) SPR experiments were performed using a Biacore T200 or S200 biosensor with a CM5 chip (GE Healthcare). Streptavidin was coupled to the chip surface at 310 K in HBS-P+ running buffer (10 mM HEPES, pH 7.4, 150 mM NaCl, 0.05%[v/v] Tween-20) after a 10 min activation with a 1:1 mixture of NHS/EDC (N-hydroxysuccinimide/N-ethyl-N′-(3-[…])carbodiimide). Protein was diluted to 100 μg·ml^−1 at pH 4.5 (10 mM sodium acetate, 0.005%[v/v] Tween-20) and injected for 7 min. The surface was then blocked with 1 M ethanolamine, pH 8.0, for 7 min. Immobilization levels were typically 7000–13 000 RU, but as low as 1800 RU for compounds 55, 59, and Ac-ARV-NH2, where fitting uses a 1:1 kinetic model to determine dissociation rates. WDR5 capture was then performed over the streptavidin-coupled flow-cells at 293 K in HBS-P+ buffer with the addition of 5 mM DTT. Capture levels for fragment screening were ∼19 000 RU, while capture levels for subsequent testing were ∼9000 RU. The N-terminal domain of heat-shock protein 90 (Hsp90, UnprotKB P08238, residues 1–382) was captured (∼11 000 RU) during screening to provide an unrelated negative control surface, activity being monitored with intermittent ADP (adenosine diphosphate) injections. Biotin was subsequently injected over WDR5- and negative control protein-bound flow-cells to block remaining unbound streptavidin. SPR experiments were performed at 298 K in SPR running buffer containing 50 mM HEPES, 150 mM NaCl, 5 mM DTT, and 0.05%[v/v] Tween-20, 2%[v/v] DMSO. Initial fragments were screened at 100 μM. When performing dose-response testing, analytes were serially diluted (2- or 3-fold), injected for 30 s contact time, and allowed to dissociate for 30 s. The flow rate was 60 μl·min^−1. Binding sensorgrams were processed, solvent-corrected, and double-referenced using Scrubber software (BioLogic Software, Australia). […] Therefore, to determine binding affinities (KD values), responses at equilibrium for each analyte were fitted to a 1:1 steady-state affinity model available within Scrubber.

The target of assay [2] is T1, WDR5. Kind of assay: SPR 1:1 kinetic model to determine dissociation rates from WDR5. The assay is classed as binding. The conditions noted are these: for koff: read-out: kd (dissociation rate); for binding to WDR5: samples were mixtures of diastereomers.
Text: Compound 1 was identified as a highly ligand efficient hit that binds the phenylalanine clamp of the WIN site, approximating the arginine headgroup of the WIN motif. […] Two peptidomimetics, with 1 replacing the arginine, were synthesized. Compounds 55 and 59 are analogs of the Ac-ARV-NH2 and Ac-α-MeAla-RV-NH2 tripeptides,[21] respectively (Fig. 5). […] The hydroxymethyl imidazole thus appears to be a good replacement for the charged arginine residue in this context, and 59 may serve as a tool compound with more sensible physicochemical parameters than previous potent tripeptides. […] Binding constants of compounds 55 and 59 are thus difficult to derive. Instead, the (concentration independent) dissociation rates have been reported for 55 and 59 (kd = 0.067 s^−1 and 0.025 s^−1, respectively) to provide a more meaningful comparison to the analogous tripeptide Ac-ARV-NH2 (kd = 0.054 s^−1). […] However, if multiple diastereomers of 55/59 were indeed binding WDR5, it would not detract from the conclusion that hydroxymethyl imidazole-peptidomimetics have potential as WDR5 WIN-site inhibitors.
as §1

The mark [3] stands for this setting: Table II, fragment core, mean ± SE (SE not reported where n = 1).
Setting [4] is: Table III, ether-derivatized 2, mean ± SE (SE not reported where n = 1).
[5] abbreviates: Table IV, derivatives of 2, mean ± SE (SE not reported where n = 1).
The mark [6] stands for this setting: 1:1 kinetic model, concentration independent, 55 and 59 tested as mixtures of diastereomers.

By Kd is commonly meant the equilibrium constant for the complex coming apart.

Counter-ions that a name gives are not always drawn. Where only a bound is given, the exact number is not on record here.

Take `Cc1nc(CO)c[nH]1` [Compound 2, (2-methyl-imidazol-4-yl)methanol]: the Kd on WDR5 [1] (setting [3]) and at WDR5 [1] (setting [4]) was 260 ± 20 µM in each case. The “LE (ligand efficiency)” value at WDR5 [1] is reported as 0.61 kcal·mol^−1·heavy atom^−1. On to `Cc1cc(CO)n[nH]1` [Compound 4], for which the Kd on WDR5 [1] (setting [3]) is above 3000 µM. `Cc1nc(COCC(F)(F)F)c[nH]1` [Compound 10, 2-methyl-4-((2,2,2-trifluoroethoxy)methyl)-1H-imidazole]: the Kd on WDR5 [1] (setting [4]) was above 3000 µM. On WDR5 [1] (setting [5]), `COC(CCc1nc(CO)c[nH]1)c1ccccc1` (stereo not shown) [Compound 17, (2-(3-methoxy-3-phenylpropyl)-1H-imidazol-4-yl)methanol] registered a Kd of 22 ± 6 µM. At WDR5 [1], the “LE (ligand efficiency)” value is listed as 0.35 kcal·mol^−1·heavy atom^−1. Regarding `CC(=O)NC(C)(C)C(=O)NC(CCCc1nc(CO)c[nH]1)C(=O)NC(C(N)=O)C(C)C` (stereo not shown) [Compound 59, 2-(2-acetamido-2-methylpropanamido)-N-(1-amino-3-methyl-1-oxobutan-2-yl)-5-(4-(hydroxymethyl)-1H-imidazol-2-yl)pentanamide], the koff at WDR5 [2] (setting [6]) was 0.025 s⁻¹. At WDR5 [2], the “binding to WDR5” value is reported as “Binding was observed”.

The molecule `NCCCCc1ncc(CO)[nH]1` [Compound 28, (2-(4-aminobutyl)-1H-imidazol-5-yl)methanol bis trifluoroacetic acid] yielded a Kd on WDR5 [1] (setting [5]) of 350 ± 40 µM. `CNC(=O)CCc1nc(CO)c[nH]1` [Compound 23, 3-(4-(hydroxymethyl)-1H-imidazol-2-yl)-N-methylpropanamide] registered a Kd at WDR5 [1] (setting [5]) of 890 µM.

Take `COC(=O)N(CCCCc1nc(CO)c[nH]1)Cc1cc[nH]c(=O)c1` [Compound 47, Methyl (4-(4-(hydroxymethyl)-1H-imidazol-2-yl)butyl)((2-oxo-1,2-dihydropyridin-4-yl)methyl)carbamate hydrochloride]: on WDR5 [1] (setting [5]), binding was characterised by a dissociation constant (Kd) of 24.2 ± 0.2 µM. On the same count and under the same terms, the figure for `O=C(NCCCCc1ncc(CO)[nH]1)c1ccccc1` [Compound 30, N-(4-(5-(hydroxymethyl)-1H-imidazol-2-yl)butyl)benzamide] is 12 ± 1 µM. On WDR5 [1] (setting [4]), `Cc1nc(COC(C)C)c[nH]1` [Compound 9, 4-(isopropoxymethyl)-2-methyl-1H-imidazole] showed a Kd above 3000 µM.

The molecule `Cc1ncc[nH]1` [Compound 6, 2-methyl imidazole] gave a Kd on WDR5 [1] (setting [3]) of 2100 µM. Further, at WDR5 [1], the “LE (ligand efficiency)” value was 0.60 kcal·mol^−1·heavy atom^−1. In the case of `CC(=O)NC(C)C(=O)NC(CCCc1nc(CO)c[nH]1)C(=O)NC(C(N)=O)C(C)C` (stereo not shown) [Compound 55, 2-(2-acetamidopropanamido)-N-(1-amino-3-methyl-1-oxobutan-2-yl)-5-(4-(hydroxymethyl)-1H-imidazol-2-yl)pentanamide], the koff on WDR5 [2] (setting [6]) worked out at 0.067 s⁻¹. Moreover, on WDR5 [2], the “binding to WDR5” value is “Binding was observed”. `OCc1c[nH]c(CCc2ccccc2)n1` [Compound 15, (2-phenethyl-1H-imidazol-4-yl)methanol]: the Kd at WDR5 [1] (setting [5]) stood at 300 ± 40 µM. `CC(=O)NCCCCc1ncc(CO)[nH]1` [Compound 29, N-(4-(5-(hydroxymethyl)-1H-imidazol-2-yl)butyl)acetamide trifluoroacetic acid] returned a dissociation constant Kd at WDR5 [1] (setting [5]) of 200 ± 10 µM. Regarding `O=C(NCCCCc1ncc(CO)[nH]1)OCc1ccccc1` [Compound 35, Benzyl (4-(5-(hydroxymethyl)-1H-imidazol-2-yl)butyl)carbamate trifluoroacetic acid], the Kd at WDR5 [1] (setting [5]) was 11 ± 1 µM. Compared with the last molecule, the Kd is about 18-fold lower.

With `COCc1c[nH]c(C)n1` [Compound 7], the Kd on WDR5 [1] (setting [4]) was above 3000 µM. In the case of Ac-ARV-NH2 [reference compound], the “kd (dissociation rate)” value on WDR5 [2] (setting [6]) amounted to 0.054 s⁻¹. `COC(=O)N(CCCCc1nc(CO)c[nH]1)CC1CCNCC1` [Compound 40, Methyl (4-(4-(hydroxymethyl)-1H-imidazol-2-yl)butyl)(piperidin-4-ylmethyl)carbamate bis trifluoroacetic acid] gave a Kd at WDR5 [1] (setting [5]) of 19 ± 3 µM.

Turning to `Cc1nc(COCc2ccccc2)c[nH]1` [Compound 11, 4-((benzyloxy)methyl)-2-methyl-1H-imidazole], the Kd at WDR5 [1] (setting [4]) is 950 µM. On to `CCCCc1ncc(CO)[nH]1` [Compound 1, (2-butyl-1H-imidazol-5-yl)methanol], for which binding at WDR5 [1] (setting [3]) was put at a Kd of 480 ± 30 µM. The “LE (ligand efficiency)” value on WDR5 [1] was determined as 0.41 kcal·mol^−1·heavy atom^−1. In the case of `OCc1c[nH]c(Cc2ccccc2)n1` [Compound 14, (2-benzyl-1H-imidazol-4-yl)methanol], the Kd on WDR5 [1] (setting [5]) is 530 µM.

On WDR5 [1] (setting [5]), `OCc1c[nH]c(CCCc2ccccc2)n1` [Compound 16, (2-(3-phenylpropyl)-1H-imidazol-4-yl)methanol] showed a Kd of 140 ± 30 µM. In addition, the “LE (ligand efficiency)” value at WDR5 [1] is recorded as 0.33 kcal·mol^−1·heavy atom^−1.

Turning to `O=C(Cc1ccccc1)NCCCCc1ncc(CO)[nH]1` [Compound 31, N-(4-(5-(hydroxymethyl)-1H-imidazol-2-yl)butyl)-2-phenylacetamide trifluoroacetic acid], the Kd at WDR5 [1] (setting [5]) was 25 ± 3 µM. `CCOC(=O)CCc1nc(CO)c[nH]1` [Compound 24, ethyl 3-(4-(hydroxymethyl)-1H-imidazol-2-yl)propanoate] yielded a Kd at WDR5 [1] (setting [5]) of 240 ± 10 µM.

For `OCc1c[nH]c(-c2ccccc2)n1` [Compound 13], the figures for the Kd at WDR5 [1] and at WDR5 [1] (setting [5]) were 5200 µM and above 3000 µM, respectively. The molecule `COC(=O)NCCCCc1ncc(CO)[nH]1.O=C(O)C(F)(F)F` [Compound 32, Methyl (4-(5-(hydroxymethyl)-1H-imidazol-2-yl)butyl)carbamate trifluoroacetic acid] yielded a Kd on WDR5 [1] (setting [5]) of 28.9 ± 0.5 µM. Moreover, the “LE (ligand efficiency)” value on WDR5 [1] came out at 0.39 kcal·mol^−1·heavy atom^−1.

Molecule `OCc1ncc[nH]1` [Compound 5] registered a Kd at WDR5 [1] (setting [3]) above 3000 µM.

As for `COC(=O)N(CCCCc1ncc(CO)[nH]1)Cc1ccccc1` [Compound 37, Methyl benzyl(4-(5-(hydroxymethyl)-1H-imidazol-2-yl)butyl)carbamate trifluoroacetic acid], the affinity at WDR5 [1] (setting [5]), expressed as Kd, was 4.5 ± 0.3 µM. On WDR5 [1], `OCc1c[nH]cn1` [Compound 3] returned a Kd above 3000 µM. For the same molecule, the potency estimated from few doses on WDR5 [1] (Table II, estimated from single concentration (100 μM) screen, read-out: KD) is above 3000 µM. As for `COC(=O)N(CCCCc1nc(CO)c[nH]1)Cc1ccc(=O)[nH]c1.O=C(O)C(F)(F)F` [Compound 45, Methyl (4-(4-(hydroxymethyl)-1H-imidazol-2-yl)butyl)((6-oxo-1,6-dihydropyridin-3-yl)methyl)carbamate trifluoroacetic acid], the Kd on WDR5 [1] (setting [5]) came out at 98.6 ± 0.6 µM. Further, the “fold weaker binding than 37” value at WDR5 [1] (ratio of SPR KD values) amounted to 20 fold. `CCCOCc1c[nH]c(C)n1` [Compound 8, 2-methyl-4-(propoxymethyl)-1H-imidazole] returned a Kd on WDR5 [1] (setting [4]) above 3000 µM.
